30 molecules from US8802865B2 (Janssen Pharmaceutica, NV, priority 2006, dated 2014) can be followed below.

One experiment concerns ventral prostate. As to the kind of experiment: Ventral Prostate Weight in vivo Assay (inhibition of testosterone-enhanced tissue weight). On the set-up: key: “active” in the Table below if the non weight adjusted prostate weight was ≦40 mg or the % Inhibition prostate weight, body weight adjusted was ≧40% @ 2 mg/day dosage; listed herein as “inactive” as they did not meet the specified criteria defined above. The settings on record: castrated male Sprague Dawley rats, test compound usually orally once daily with testosterone propionate s.c.; ventral prostate wet weight; criteria at 2 mg/day dosage. The procedure:
(§1) Ventral Prostate and Levator Ani Weight in vivo Assay
(§2) Immature (approximately 50 g) castrated male Sprague Dawley rats (Charles River) were treated once daily for five days with test compound (usually given orally at 40 mg/kg in a volume of 0.3 mL, in 30% cyclodextrin or 0.5% methylcellulose vehicle) and with testosterone propionate (given subcutaneously by injection at the nape of the neck at 2 mg/kg, in a volume of 0.1 mL in sesame oil). On the sixth day, the rats were euthanized by asphyxiation in carbon dioxide. Ventral prostates and levator ani were removed and their wet weights determined. Test compound activity was determined as the percent inhibition of testosterone-enhanced tissue weights, with a vehicle-treated control group set to zero percent and a testosterone alone-treated control group set to 100%.
(§3) Mature (150- to 200-g) castrated male Sprague Dawley rats (Charles River) are similarly tested according to the procedure described above. The rats were dosed for two weeks, with 0.4 mg/kg testosterone propionate used as the positive control.
(§4) Representative compounds of the present invention were tested according to the procedure described above, with results as listed in Table 3 below. For effect on prostate—i.e. an antagonist—a test compound is listed as “active” in the Table below if the non weight adjusted prostate weight was ≦40 mg or the % Inhibition prostate weight, body weight adjusted was ≧40% @ 2 mg/day dosage. For effect on levator ani—i.e. an agonist—a test compound is listed as “active” in the Table below if the non weight adjusted levator ani weight was ≧40 mg or the % Stimulation levator ani weight, body weight adjusted was ≧40% at 2 mg/day dosage.

Another experiment has as its system levator ani. As to the kind of experiment: Levator Ani Weight in vivo Assay (stimulation of levator ani weight). Also on record: key: “active” in the Table below if the non weight adjusted prostate weight was ≦40 mg or the % Inhibition prostate weight, body weight adjusted was ≧40% @ 2 mg/day dosage; listed herein as “inactive” as they did not meet the specified criteria defined above. The settings on record: castrated male Sprague Dawley rats, test compound usually orally once daily with testosterone propionate s.c.; levator ani wet weight; criteria at 2 mg/day dosage. The procedure:
as §1, §2, §3, §4

Regarding `C=C=C(CC)C(O)(c1nc2cc(Cl)c(Cl)cc2[nH]1)C(F)(F)F` (stereo not drawn) [Compound 62, 2-(5,6-Dichloro-1H-benzoimidazol-2-yl)-3-ethyl-1,1,1-trifluoro-penta-3,4-dien-2-ol], the Prostate antagonist entry in the experiment with ventral prostate was “active”.

Regarding `C=C(CC(O)(c1nc2cc(Cl)c(Cl)cc2[nH]1)C(F)(F)F)C(=O)O` (stereo not drawn) [Compound 27, 2-[2-(5,6-Dichloro-1H-benzoimidazol-2-yl)-3,3,3-trifluoro-2-hydroxy-propyl]-acrylic acid], the L.A. agonist result with levator ani is “inactive”. Further, the Prostate antagonist result in the experiment with ventral prostate is “inactive”.

As for `C=CCCC(O)(c1nc2cc(Cl)c(Cl)cc2[nH]1)C(F)(F)F` (stereo not drawn) [Compound 40, 2-(5,6-Dichloro-1H-benzoimidazol-2-yl)-1,1,1-trifluoro-hex-5-en-2-ol], the Prostate antagonist entry with ventral prostate was “active”.

With `CC(C)=C(C)C(O)(c1nc2cc(Cl)c(Cl)cc2[nH]1)C(F)(F)F` (stereo not drawn) [Compound 42, 2-(5,6-Dichloro-1H-benzoimidazol-2-yl)-1,1,1-trifluoro-3,4-dimethyl-pent-3-en-2-ol], the L.A. agonist result in the experiment on levator ani is “inactive”. The Prostate antagonist result in the experiment with ventral prostate is reported as “active”.

For `C#CCn1c(C2(C(F)(F)F)OCCO2)nc2cc(Cl)c(Cl)cc21` [Compound 54, 5,6-Dichloro-1-prop-2-ynyl-2-(2-trifluoromethyl-[1,3]dioxolan-2-yl)-1H-benzoimidazole], in the experiment on ventral prostate, the Prostate antagonist entry is “active”.

`C=CCC(O)(c1nc2cc(Cl)c(Cl)cc2[nH]1)C(F)(F)F` (single isomer, unassigned; (+)) [Compound 23, (+)-Enantiomer of 2-(5,6-Dichloro-1H-benzoimidazol-2-yl)-1,1,1-trifluoro-pent-4-en-2-ol]: the L.A. agonist result in the experiment on levator ani is “inactive”. Moreover, in the experiment with ventral prostate, the Prostate antagonist entry was “active”.

For the molecule `COC(=O)Cn1c(C2(C(F)(F)F)OCCO2)nc2cc(Cl)c(Cl)cc21` [Compound 57, [5,6-Dichloro-2-(2-trifluoromethyl-[1,3]dioxolan-2-yl)-benzoimidazol-1-yl]-acetic acid methyl ester], the Prostate antagonist entry with ventral prostate is “inactive”.

As for `N#Cc1cc2nc(C3(C(F)(F)F)OCCO3)[nH]c2cc1C(F)(F)F` [Compound 59, 6-Trifluoromethyl-2-(2-trifluoromethyl-[1,3]dioxolan-2-yl)-1H-benzimidazole-5-carbonitrile], the L.A. agonist result in the experiment with levator ani is “inactive”. In addition, the Prostate antagonist result in the experiment with ventral prostate is given as “active”.

`OC(c1ccccc1)(c1nc2cc(Cl)c(Cl)cc2[nH]1)C(F)(F)F` (stereo not drawn) [Compound 10, 1-(5,6-Dichloro-1H-benzoimidazol-2-yl)-2,2,2-trifluoro-1-phenyl-ethanol]: the L.A. agonist result in the experiment on levator ani was “inactive”. Besides, in the experiment with ventral prostate, the Prostate antagonist entry is given as “active”.

Turning to `CCn1c(C2(C(F)(F)F)OCCO2)nc2cc(Cl)c(Cl)cc21` [Compound 56, 5,6-Dichloro-1-ethyl-2-(2-trifluoromethyl-[1,3]dioxolan-2-yl)-1H-benzoimidazole], the Prostate antagonist entry with ventral prostate is given as “active”.

In the case of `FC(F)(F)C1(c2nc3cc(Cl)c(Cl)cc3[nH]2)OCCCO1` [Compound 51, 5,6-Dichloro-2-(2-trifluoromethyl-[1,3]dioxan-2-yl)-1H-benzimidazole], the L.A. agonist entry with levator ani was “inactive”. Besides, in the experiment on ventral prostate, the Prostate antagonist result was “active”.

For `C=CCn1c(C2(C(F)(F)F)OCCO2)nc2cc(Cl)c(Cl)cc21` [Compound 55, 1-Allyl-5,6-dichloro-2-(2-trifluoromethyl-[1,3]dioxolan-2-yl)-1H-benzoimidazole], in the experiment with ventral prostate, the Prostate antagonist result is given as “active”.

In the case of `C=CC(C)(C)C(O)(c1nc2cc(Cl)c(Cl)cc2[nH]1)C(F)(F)F` (stereo not drawn) [Compound 25, 2-(5,6-Dichloro-1H-benzoimidazol-2-yl)-1,1,1-trifluoro-3,3-dimethyl-pent-4-en-2-ol], the L.A. agonist entry in the experiment with levator ani is “inactive”. Moreover, the Prostate antagonist entry with ventral prostate was “active”.

Regarding `C=CC(C)C(O)(c1nc2cc(Cl)c(Cl)cc2[nH]1)C(F)(F)F` (stereo not drawn) [Compound 26], the L.A. agonist result in the experiment with levator ani is “inactive”. For the same molecule, the Prostate antagonist result with ventral prostate is “active”.

For the molecule `C#CCC(O)(c1nc2cc(C#N)c(C(F)(F)F)cc2[nH]1)C(F)(F)F` (stereo not drawn) [Compound 39, 2-(1-Hydroxy-1-trifluoromethyl-but-3-ynyl)-6-trifluoromethyl-1H-benzoimidazole-5-carbonitrile], the L.A. agonist entry in the experiment with levator ani was “inactive”. The Prostate antagonist entry in the experiment with ventral prostate is given as “active”.

Regarding `CC(C)=CC(O)(c1nc2cc(Cl)c(Cl)cc2[nH]1)C(F)(F)F` (stereo not drawn) [Compound 14, 2-(5,6-Dichloro-1H-benzoimidazol-2-yl)-1,1,1-trifluoro-4-methyl-pent-3-en-2-ol], in the experiment on levator ani, the L.A. agonist result was “inactive”. Also, in the experiment on ventral prostate, the Prostate antagonist result was “active”.

As for `OCC#CC(O)(c1nc2cc(Cl)c(Cl)cc2[nH]1)C(F)(F)F` (stereo not drawn) [Compound 17, 4-(5,6-Dichloro-1H-benzoimidazol-2-yl)-5,5,5-trifluoro-pent-2-yne-1,4-diol], in the experiment with levator ani, the L.A. agonist entry is “inactive”. The Prostate antagonist entry in the experiment on ventral prostate is reported as “active”.

As to `C=C=C(C)C(O)(c1nc2cc(C#N)c(C(F)(F)F)cc2[nH]1)C(F)(F)F` (stereo not drawn) [Compound 41, 2-(1-Hydroxy-2-methyl-1-trifluoromethyl-buta-2,3-dienyl)-6-trifluoromethyl-1H-benzoimidazole-5-carbonitrile], in the experiment with levator ani, the L.A. agonist result is “inactive”. Also, the Prostate antagonist result with ventral prostate was “active”.

Consider `C=C(C)C(O)(c1nc2cc(Cl)c(Cl)cc2[nH]1)C(F)(F)F` (stereo not drawn) [Compound 9, 2-(5,6-Dichloro-1H-benzoimidazol-2-yl)-1,1,1-trifluoro-3-methyl-but-3-en-2-ol], for which, in the experiment with levator ani, the L.A. agonist entry is “inactive”. Also, the Prostate antagonist result in the experiment with ventral prostate is given as “active”.

With `C#CCC(O)(c1nc2cc(Cl)c(Cl)cc2n1C)C(F)(F)F` (stereo not drawn) [Compound 35, 2-(5,6-Dichloro-1-methyl-1H-benzoimidazol-2-yl)-1,1,1-trifluoro-pent-4-yn-2-ol], the Prostate antagonist result with ventral prostate was “inactive”.

In the case of `FC(F)(F)C1(c2nc3cc(Cl)c(Cl)cc3n2Cc2ccccn2)OCCO1` [Compound 48], the L.A. agonist result with levator ani is “inactive”. Moreover, in the experiment on ventral prostate, the Prostate antagonist result was “inactive”.

For `CC#CC(O)(c1nc2cc(Cl)c(Cl)cc2[nH]1)C(F)(F)F` (stereo not drawn) [Compound 8, 2-(5,6-Dichloro-1H-benzoimidazol-2-yl)-1,1,1-trifluoro-pent-3-yn-2-ol], in the experiment on levator ani, the L.A. agonist entry was “inactive”. For the same molecule, the Prostate antagonist entry with ventral prostate was “active”.

For `OC(CC#Cc1ccccc1)(c1nc2cc(Cl)c(Cl)cc2[nH]1)C(F)(F)F` (stereo not drawn) [Compound 34, 2-(5,6-Dichloro-1H-benzoimidazol-2-yl)-1,1,1-trifluoro-5-phenyl-pent-4-yn-2-ol], the L.A. agonist result in the experiment with levator ani is “inactive”. The Prostate antagonist result in the experiment with ventral prostate was “inactive”.

As to `FC(F)(F)C1(c2nc3cc(Cl)c(Cl)cc3[nH]2)OCC(CCl)O1` (stereo not drawn) [Compound 50, 5,6-Dichloro-2-(4-chloromethyl-2-trifluoromethyl-[1,3]dioxolan-2-yl)-1H-benzimidazole], the Prostate antagonist entry with ventral prostate is on record as “active”.

On to `C=CC(O)(c1nc2cc(Cl)c(Cl)cc2[nH]1)C(F)(F)F` (single isomer, unassigned; (-)) [Compound 44, (−)-2-(5,6-dichloro-1H-benzoimidazol-2-yl)-1,1,1-trifluoro-but-3-en-2-ol], for which the L.A. agonist result in the experiment with levator ani was “inactive”. Moreover, the Prostate antagonist result in the experiment on ventral prostate was “inactive”.

As to `Cn1c(C2(C(F)(F)F)OCCO2)nc2cc(Cl)c(Cl)cc21` [Compound 52, 5,6-Dichloro-1-methyl-2-(2-trifluoromethyl-[1,3]dioxolan-2-yl)-1H-benzoimidazole], the Prostate antagonist result in the experiment on ventral prostate is “inactive”.

As to `N#CCn1c(C2(C(F)(F)F)OCCO2)nc2cc(Cl)c(Cl)cc21` [Compound 53, [5,6-Dichloro-2-(2-trifluoromethyl-[1,3]dioxolan-2-yl)-benzoimidazol-1-yl]-acetonitrile], in the experiment on ventral prostate, the Prostate antagonist entry is “active”.

With `C#CCC(O)(c1nc2cc(Cl)c(Cl)cc2n1C)C(F)(F)F` (single isomer, unassigned; (+)) [Compound 36, (+)-Enantiomer of 2-(5,6-Dichloro-1-methyl-1H-benzoimidazol-2-yl)-1,1,1-trifluoro-pent-4-yn-2-ol], the L.A. agonist result in the experiment on levator ani was “inactive”. Moreover, the Prostate antagonist result in the experiment on ventral prostate is “inactive”.

Take `FC(F)(F)C1(c2nc3cc(Cl)c(Cl)cc3[nH]2)NCCN1` [Compound 60, 5,6-Dichloro-2-(2-trifluoromethyl-imidazolidin-2-yl)-1H-benzimidazole]: in the experiment with ventral prostate, the Prostate antagonist entry was “active”.

With `FC(F)(F)C1(c2nc3cc(Cl)c(Cl)cc3[nH]2)OCCO1` [Compound 47, 5,6-Dichloro-2-(2-trifluoromethyl-[1,3]dioxolan-2-yl)-1H-benzimidazole], the Prostate antagonist result with ventral prostate is “active”.
